Laboratory results taken from PMC7940574 (Angewandte Chemie (International ed. in English), 2021).

Tested on: A549 cells
Assay: Flow cytometry annexin V / propidium iodide in A549 cells
Assay type: cell-based, human
Conditions: 15 μM gefitinib

## COc1cc2ncnc(Nc3ccc(F)c(Cl)c3)c2cc1OCCCN1CCOCC1 [gefitinib]
  mode of cytotoxicity (annexin V vs propidium iodide): early apoptosis
